Test results from patent publication US7582282B2, “Methods for optimizing clinical responsiveness to methotrexate therapy using metabolite profiling and pharmacogenetics” (Prometheus Laboratories Inc., priority 2003, dated 2009).

Legend:
[1] = Red blood cell MTXPG concentrations in 14 polyarthritis patients on low dose weekly methotrexate (HPLC-fluorometry)
Procedure: The liquid chromatograph was an Agilent 1100 HPLC chemstation system composed of a quaternary pump, a system controller, an autoinjector, a sample cooler kept at 4° C., and a fluorometer. […] Methotrexate polyglutamates were detected with post-column derivatization using a photochemical reactor unit (Aura Industries, New York, N.Y.) equipped with an elongated 254 nm low pressure mercury ultraviolet lamp and containing a 1/16″ outer diameter TEFLON™ tubing (internal diameter 0.25 mm) assembled as a knitted coil and connected on-line between the analytical column and fluorometer. […] Methotrexate polyglutamate photolytic products were measured at an excitation wavelength of 274 nm and an emission wavelength of 464 nm, unless otherwise indicated. The retention times described herein were measured from time of injection to time of detection at the post-reactor unit fluorometer.
HPLC separation was performed on a 25 cm×4.6 mm X Terra MS C18 column (Waters, Milford, Mass.), 5 μm particle size, protected by a guard column. […] Methotrexate polyglutamate photolytic products were analyzed at an excitation wavelength of 274 nm and an emission wavelength of 464 nm. […]
Results were expressed as nmol/L packed red blood cells, and patient results were expressed as an average plus or minus the standard error of the mean (±SEM). […]

[2] = system: patients with rheumatoid arthritis; assay: Cross-sectional clinical study of methotrexate effects in patients with rheumatoid arthritis (joint counts, VAS, mHAQ; regression analyses); format: in vivo, human; parameters: key to Physician's assessment of disease activity visual analog score (VAS), mean / Physician assessment of disease activity VAS: 10 cm visual analog scale; key to Modified health assessment questionnaire (mHAQ) score, mean / Modified Health assessment questionnaire: mean of 8 items, each 0 = without any difficulty to 3 = unable to do
Procedure: In this cross-sectional study, eligibility was limited to patients of at least 18 years of age who met the revised criteria of the American Rheumatism Association for Rheumatoid Arthritis and had received low dose methotrexate therapy for at least three months. Some patients were on additional medications for rheumatoid arthritis, including low dose corticosteroids (<10 mg day), and folic acid supplementation (1 mg/day). The Institutional Review Board approved the study, and patient consent was obtained.
Patient characteristics were collected at the time of the enrollment in the clinical study. Clinical assessment included a tender joint count, a swollen joint count, a Physician's Assessment of Disease Activity (using a 10 cm visual analog scale (VAS)), and a Patient's Assessment of Physical Function using the modified-Health Assessment Questionnaire (m-HAQ). The mHAQ is the average score obtained on eight items addressed to the patient to assess loss of typical lifestyle activities. Scoring of items within each is from 0 (without any difficulty) to 3 (unable to do). The eight items are as follows: 1: dress yourself, 2: get in and out of bed, 3: lift a full glass to your mouth, 4: walk, 5: wash and dry entire body, 6: bend down and pick up clothing, 7: turn faucets on and off, and 8: get in and out of a car. In addition to these standards, the American College of Rheumatology measures, and a Physician's Assessment of Response to methotrexate scored on a 10 cm visual analogue scale (VAS) were also used. In this visual analogue scale, “0” is defined as a perfect response, while “10” is defined as no response. Based on these definitions, a physician's assessment of response to MTX below group median corresponds to a perception of response above group median. Clinical data were collected on case report forms at the time of the clinical visit, and the physician and each patient were blinded to all laboratory parameters throughout the entire study. Furthermore, using the VAS for the physician's assessment of disease activity and the physician's assessment of response to methotrexate, the highest 25th percentiles for disease activity or response to methotrexate were calculated. Chi-square analysis was applied, and odds ratios (OR) were calculated.
Genotyping was performed as follows: Whole blood (EDTA) was drawn the day of the clinical visit; genomic DNA was extracted using a Generation Purification Capture Column (Gentra Systems, Inc; Minneapolis, Minn.). The RFC-1 G80A polymorphism, which results in a […] substitution at codon 27 of RFC-1, was detected using the PCR RFLP method described in Chango et al., supra, 2000. The ATIC C347G polymorphism, which results in a threonine to serine substitution at position 116 of ATIC, was determined with a real time TaqMan allelic discrimination assay performed using fluorogenic 3′-minor groove binding probes. The forward primer sequence was 5′-[…]-3′ (SEQ ID NO:3), and the reverse primer sequence was 5′-[…]-3′ (SEQ ID NO:4). Allelic discrimination was performed using the wild-type fluorescent probe 5′-FAM-[…]-MGB 3′ (SEQ ID NO:5) and the mutant fluorescent probe 5′-VIC-[…]-MGB 3′ (SEQ ID NO:6). Final reaction conditions were as follows: 900 nM of each primer, 200 nM of each probe, 5 ng genomic DNA, and a 1×TaqMan master mix (Applied Biosystems; Foster City, Calif.). PCR reactions were incubated for one 2-minute cycle at 50° C., a 10-minute cycle at 95° C., and 40 cycles of 95° C. for 15 seconds, 58° C. for 15 seconds, and finally 60° C. for 45 seconds. Statistical analyses were performed using Statistica (StatSoft Inc., Tulsa, Okla.) essentially as follows. […]

[3] = human, in vivo
Procedure: Red blood cell methotrexate polyglutamate concentrations were measured as described further below using HPLC-fluorometry with post-column photo-oxidation technique. The technologist in charge of quantification of red blood cell methotrexate polyglutamates was blinded to patients' clinical information.
Mobile phase B consisted of acetonitrile.
Red blood cell long-chain MTXPG concentrations were measured as described previously using an HPLC-fluorometry procedure with post-column photo-oxidation technique (Dervieux, Clin Chem. (2003)). The technologist performing the quantification of RBC MTXPGs (up to the penta-order of glutamation) was blinded to patient's information.
The quantification limit of the analytical method is 5 nmol/L and the detection limit is 2 nmol/L packed RBC (for all MTXPG species) (Dervieux, Clin Chem. (2003)).

[4] = multivariate regression with RFC-1, ATIC, TSER genotypes, adjusted for corticosteroids and folic acid
[5] = 108 patients on methotrexate, mean ± SEM
[6] = 108 patients on methotrexate, median (range)
[7] = multivariate linear regression adjusted for corticosteroids and folic acid

SMILES: CN(Cc1cnc2nc(N)nc(N)c2n1)c1ccc(C(=O)N[C@@H](CCC(=O)N[C@@H](CCC(=O)N[C@@H](CCC(=O)O)C(=O)O)C(=O)O)C(=O)O)cc1 [MTXPG3, 4-amino-10-methylpteroyltri-glutamic acid]
- Average share of total methotrexate polyglutamates ([1]; 14 patients, RBC): 55%
- Logistic regression estimate for MTXPG3: probability of total number of tender and swollen joints below group median ([2]; FIG. 4A, model with MTXPG3 only, estimate ± standard error): 0.022±0.008
- Logistic regression estimate for MTXPG3: probability of physician assessment of Disease activity VAS below group median ([2]; FIG. 4B, model with MTXPG3 only): 0.024±0.009
- Logistic regression estimate for MTXPG3: probability of physician assessment of response to methotrexate VAS below group median ([2]; FIG. 4C, model with MTXPG3 only): 0.034±0.01
- Logistic regression estimate for MTXPG3: probability of mHAQ below group median ([2]; FIG. 4D, model with MTXPG3 only): 0.014±0.008
- Logistic regression estimate for MTXPG3: probability of total number of tender and swollen joints below group median ([2]; FIG. 5A, model with MTXPG3 and RFC-1 G80A genotype): 0.022±0.009
- Logistic regression estimate for MTXPG3: probability of physician assessment of Disease activity VAS below group median ([2]; FIG. 5B, model with MTXPG3 and RFC-1 G80A genotype): 0.024±0.009
- Logistic regression estimate for MTXPG3: probability of physician assessment of response to methotrexate VAS below group median ([2]; FIG. 5C, model with MTXPG3 and RFC-1 G80A genotype): 0.033±0.010
- Logistic regression estimate for MTXPG3: probability of mHAQ below group median ([2]; FIG. 5D, model with MTXPG3 and RFC-1 G80A genotype): 0.015±0.008
- Logistic regression estimate for MTXPG3: probability of total number of tender and swollen joints below group median ([2]; FIG. 6A, model with MTXPG3 and ATIC C347G genotype): 0.024±0.009
- Logistic regression estimate for MTXPG3: probability of physician assessment of Disease activity VAS below group median ([2]; FIG. 6B, model with MTXPG3 and ATIC C347G genotype): 0.025±0.009
- Logistic regression estimate for MTXPG3: probability of physician assessment of response to methotrexate VAS below group median ([2]; FIG. 6C, model with MTXPG3 and ATIC C347G genotype): 0.038±0.010
- Logistic regression estimate for MTXPG3: probability of mHAQ below group median ([2]; FIG. 6D, model with MTXPG3 and ATIC C347G genotype): 0.013±0.008
- Logistic regression estimate for MTXPG3: probability of total number of tender and swollen joints below group median ([2]; FIG. 7A, model with MTXPG3 and PGENi (RFC-1, ATIC)): 0.023±0.009
- Logistic regression estimate for MTXPG3: probability of physician assessment of Disease activity VAS below group median ([2]; FIG. 7B, model with MTXPG3 and PGENi (RFC-1, ATIC)): 0.025±0.009
- Logistic regression estimate for MTXPG3: probability of physician assessment of response to methotrexate VAS below group median ([2]; FIG. 7C, model with MTXPG3 and PGENi (RFC-1, ATIC)): 0.036±0.010
- Logistic regression estimate for MTXPG3: probability of mHAQ below group median ([2]; FIG. 7D, model with MTXPG3 and PGENi (RFC-1, ATIC)): 0.014±0.009
- MTXPG3 estimate, logistic regression: probability of physician's assessment of patient's response to MTX VAS≦2 cm ([2]; FIG. 12B): 0.035±0.01
- Estimate ± SEM of RBC MTXPG3 (nmol/L) for Modified Health assessment questionnaire [2, 4]: −0.002 ± 0.002
- Estimate ± SEM of RBC MTXPG3 (nmol/L) for Number of Swollen joints [2, 4]: −0.035 ± 0.019
- Estimate ± SEM of RBC MTXPG3 (nmol/L) for Number of Tender joints [2, 4]: −0.047 ± 0.23
- Estimate ± SEM of RBC MTXPG3 (nmol/L) for Patient's Global assessment of disease activity VAS [2, 4]: −0.004 ± 0.009
- Estimate ± SEM of RBC MTXPG3 (nmol/L) for Physician's Global assessment of disease activity VAS [2, 4]: −0.025 ± 0.008
- Estimate ± SEM of RBC MTXPG3 (nmol/L) for Physician's assessment of Patient's response to MTX VAS [2, 4]: −0.026 ± 0.007
- Fold more likely to have clinical responsiveness to the chemotherapy above average ([2]; patients with RBC MTXPG3 levels above 60 nmol/L): 12.7 fold
- Median RBC long-chain MTXPGs concentration (MTXPG3) [3]: 40 nmol/L
- RBC long-chain MTXPGs concentration (MTXPG3), range [3]: <5 to 131 nmol/L

SMILES: CN(Cc1cnc2nc(N)nc(N)c2n1)c1ccc(C(=O)N[C@@H](CCC(=O)O)C(=O)O)cc1 [Methotrexate, 4-amino-10-methylpteroylglutamic acid]
- RBC concentration in a patient sample ([1]; one patient on 17.5 mg weekly methotrexate for at least 3 months): 27 nmol/L
- Modified Health assessment questionnaire [2, 5]: 0.55 ± 0.05
- Number of Swollen joints (maximum 22) [2, 5]: 4.0 ± 0.5
- Number of Tender joints (maximum 22) [2, 5]: 5.0 ± 0.6
- Patient assessment of disease activity VAS [2, 5]: 4.1 ± 0.2
- Physician assessment of disease activity VAS [2, 5]: 3.5 ± 0.2
- Modified Health Assessment Questionnaire (mHAQ score) [2, 6]: 0.375 (0-2)
- Number of swollen and tender joints (total number) [2, 6]: 5.5 (0-44)
- Physician assessment of disease activity (10 cm VAS score) [2, 6]: 2.9 (0.1-8.4)
- Physician assessment of response to Methotrexate VAS ([2]; 108 patients, mean ± SEM): 2.7 ± 0.2
- Physician assessment of response to methotrexate (10 cm VAS score) ([2]; 108 patients, median (range), 0 perfect response, 10 no response): 2.1 (0.1-8.3)
- Mean number of swollen joints ([2]; PGENi=0 (n=58 patients)): 5.5±0.8
- Modified health assessment questionnaire (mHAQ) score, mean ([2]; PGENi=0 (n=58 patients)): 0.68±0.07
- Physician's assessment of disease activity visual analog score (VAS), mean ([2]; PGENi=0 (n=58 patients)): 4.1±0.3
- Physician's assessment of response to MTX, mean ([2]; PGENi=0 (n=58 patients)): 3.0±0.2
- Mean number of tender joints ([2]; PGENi=0 (n=58 patients), PGENi from RFC-1, ATIC, TS homozygosity): 6.4±0.9
- Mean number of swollen joints ([2]; PGENi=1 to 3 (n=50 patients)): 2.3±0.4
- Mean number of tender joints ([2]; PGENi=1 to 3 (n=50 patients)): 3.3±0.9
- Modified health assessment questionnaire (mHAQ) score, mean ([2]; PGENi=1 to 3 (n=50 patients)): 0.39±0.06
- Physician's assessment of disease activity visual analog score (VAS), mean ([2]; PGENi=1 to 3 (n=50 patients)): 2.6±0.3
- Physician's assessment of response to MTX, mean ([2]; PGENi=1 to 3 (n=50 patients)): 2.3±0.3
- Estimate ± SEM of methotrexate dose (mg/week) for Modified Health assessment questionnaire [2, 7]: −0.017 ± 0.009; p = 0.09
- Estimate ± SEM of methotrexate dose (mg/week) for Number of Tender joints [2, 7]: −0.17 ± 0.12; p = 0.15
- Estimate ± SEM of methotrexate dose (mg/week) for Physician assessment of disease activity VAS [2, 7]: −0.088 ± 0.044; p = 0.06
- Fold more likely to have a good response to methotrexate therapy ([2]; patients with a PGENi between 1-3 (sum of homozygous variant genotypes)): 3.7 fold
- Fold more likely to have Physician's Assessment of Patient's Response to Methotrexate VAS≦2 cm (good response) ([2]; pharmacogenetic index above 2 (index 0 to 5, variant alleles counted)): 4.7 fold
